Results published in the NIST ThermoML archive (doi:10.1016/j.tca.2013.05.017).
Numbers after ± are expanded uncertainties.

Conditions: 101.33 kPa, Crystal 2, Small (less than 1 g) adiabatic calorimetry

O=S(=O)([O-])[O-].[Sr+2] [sulfuric acid, strontium salt (1:1)]
Conditions	molar entropy [J/K/mol]
5 K	0.01272
10 K	0.1188 ± 0.033
15 K	0.4903 ± 0.04
20 K	1.25 ± 0.053
25 K	2.413 ± 0.066
30 K	3.947 ± 0.18
35 K	5.8 ± 0.19
40 K	7.917 ± 0.21
45 K	10.25 ± 0.23
50 K	12.75 ± 0.25
55 K	15.38 ± 0.27
60 K	18.11 ± 0.29
65 K	20.88 ± 0.31
70 K	23.69 ± 0.33
75 K	26.51 ± 0.35
80 K	29.33 ± 0.37
85 K	32.13 ± 0.39
90 K	34.9 ± 0.51
95 K	37.65 ± 0.53
100 K	40.36 ± 0.54
110 K	45.67 ± 0.57
120 K	50.82 ± 0.61
130 K	55.82 ± 0.64
140 K	60.67 ± 0.66
150 K	65.39 ± 0.69
160 K	69.99 ± 0.72
170 K	74.46 ± 0.75
180 K	78.81 ± 0.77
190 K	83.06 ± 0.8
200 K	87.2 ± 0.82
210 K	91.24 ± 0.85
220 K	95.18 ± 0.87
230 K	99.04 ± 0.89
240 K	102.82 ± 0.92
250 K	106.52 ± 0.94
260 K	110.15 ± 0.96
270 K	113.73 ± 0.98
273.15 K	114.84 ± 0.99
280 K	117.23 ± 1
290 K	120.68 ± 1
298.15 K	123.44 ± 1
300 K	124.06 ± 1
310 K	127.38 ± 1.1
320 K	130.64 ± 1.1
